Test results taken from patent publication US5858751A, “Compositions and methods for producing sialyltransferases” (The Regents of the University of California, priority 1995, dated 1999).

Tests used:
ST3O = molecular target: T1, ST3O (Sus scrofa, UniProt Q02745); assay: Acceptor specificity of ST3O in COS-1 media
T1 sequence (Q02745 28-343 limits assumed): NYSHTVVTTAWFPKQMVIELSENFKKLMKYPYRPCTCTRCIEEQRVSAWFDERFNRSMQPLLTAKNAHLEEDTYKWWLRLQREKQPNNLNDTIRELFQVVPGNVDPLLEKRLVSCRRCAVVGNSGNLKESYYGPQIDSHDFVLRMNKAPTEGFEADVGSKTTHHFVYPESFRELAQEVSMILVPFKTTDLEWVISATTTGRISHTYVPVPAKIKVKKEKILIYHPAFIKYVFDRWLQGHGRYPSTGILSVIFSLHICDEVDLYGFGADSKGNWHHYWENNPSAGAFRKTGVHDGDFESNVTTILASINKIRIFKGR

ST3N = assay: Acceptor specificity of ST3N in COS-1 media
ST3 = molecular target: T2, ST3 (Homo sapiens, UniProt Q11206); assay: Acceptor specificity of soluble ST3 (AZ3) in COS-1 media; settings: for sialic acid incorporation by ST3 enzyme: data not shown
T2 sequence (Q11206 1-332 isoform Q11206-2): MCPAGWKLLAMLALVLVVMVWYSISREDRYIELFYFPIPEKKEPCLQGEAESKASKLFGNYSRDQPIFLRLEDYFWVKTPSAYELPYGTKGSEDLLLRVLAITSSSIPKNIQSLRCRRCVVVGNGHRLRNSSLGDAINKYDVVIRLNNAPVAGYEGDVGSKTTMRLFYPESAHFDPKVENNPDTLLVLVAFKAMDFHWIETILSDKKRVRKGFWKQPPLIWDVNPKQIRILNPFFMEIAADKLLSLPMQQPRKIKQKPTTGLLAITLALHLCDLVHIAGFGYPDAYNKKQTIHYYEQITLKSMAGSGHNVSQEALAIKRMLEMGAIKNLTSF

porcine ST3O = molecular target: T3, porcine ST3O (Sus scrofa, UniProt Q02745); assay: Acceptor specificity of recombinant porcine ST3O; format: biochemical; settings: acceptor 0.2 mM
T3 sequence (Q02745 28-343 limits assumed): T1 sequence (Q02745 28-343 limits assumed)

human ST3O = molecular target: T4, human ST3O (Homo sapiens, UniProt Q11201); assay: Acceptor specificity of soluble human ST3O; format: biochemical; settings: acceptor 0.2 mM
T4 construct: lacked the first 44 amino acids of the open reading frame; made in house; host or cells: COS-1 cells (transient, culture medium)
T4 sequence (Q11201 45-340): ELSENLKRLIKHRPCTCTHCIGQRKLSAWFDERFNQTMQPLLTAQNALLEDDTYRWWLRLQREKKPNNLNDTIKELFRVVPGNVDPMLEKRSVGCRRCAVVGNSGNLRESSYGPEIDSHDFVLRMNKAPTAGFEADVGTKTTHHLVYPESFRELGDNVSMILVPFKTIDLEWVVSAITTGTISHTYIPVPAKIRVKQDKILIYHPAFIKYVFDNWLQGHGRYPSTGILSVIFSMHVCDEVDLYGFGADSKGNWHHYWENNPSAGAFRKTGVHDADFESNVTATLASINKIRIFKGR

rat ST3N = assay: Acceptor specificity of soluble rat ST3N fusion protein; settings: acceptor 0.2 mM; relative to LNT
human ST3N = molecular target: T5, human ST3N (Homo sapiens, UniProt Q11203); assay: Acceptor specificity of soluble human ST3N fusion protein; settings: acceptor 0.2 mM; relative to LNT
T5 sequence (Q11203 62-375): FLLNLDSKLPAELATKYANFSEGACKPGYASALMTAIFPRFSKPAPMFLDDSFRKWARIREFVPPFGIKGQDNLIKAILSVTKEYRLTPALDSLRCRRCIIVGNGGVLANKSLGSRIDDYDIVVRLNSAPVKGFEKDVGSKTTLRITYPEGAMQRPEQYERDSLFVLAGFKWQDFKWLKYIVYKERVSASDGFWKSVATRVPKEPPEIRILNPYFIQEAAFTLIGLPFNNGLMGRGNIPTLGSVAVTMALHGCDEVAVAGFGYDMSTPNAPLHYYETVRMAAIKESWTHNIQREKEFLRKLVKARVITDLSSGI

α2,3-N sialyltransferase = molecular target: T6, α2,3-N sialyltransferase (Rattus norvegicus, UniProt Q02734); assay: Acceptor use by soluble α2,3-N sialyltransferase secreted from COS-1 cells (pBD122); format: biochemical; settings: concentrated COS-1 media
T6 construct: made in house; host or cells: COS-1 cells (transient, culture medium)
T6 sequence (Q02734 29-374 limits assumed): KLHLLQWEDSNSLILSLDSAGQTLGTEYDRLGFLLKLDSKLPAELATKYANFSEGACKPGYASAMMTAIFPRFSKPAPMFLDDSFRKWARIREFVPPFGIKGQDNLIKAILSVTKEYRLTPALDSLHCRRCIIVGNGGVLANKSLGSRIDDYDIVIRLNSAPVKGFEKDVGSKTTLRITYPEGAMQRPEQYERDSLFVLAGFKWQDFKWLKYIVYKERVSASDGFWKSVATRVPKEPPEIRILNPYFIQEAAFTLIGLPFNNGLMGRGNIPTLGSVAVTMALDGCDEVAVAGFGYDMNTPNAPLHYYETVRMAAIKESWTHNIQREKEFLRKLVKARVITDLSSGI

Relative rate (%) ST3O (ST3O; acceptor 2.0 mM)	Relative rate (%) ST3 (ST3; acceptor 2.0 mM)	Compound	Relative rate (%) ST3O (ST3O; acceptor 0.2 mM)	Relative rate (%) ST3N (ST3N; acceptor 0.2 mM)	Relative rate (%) ST3 (ST3; acceptor 0.2 mM)	further results
0%	0%	CC(=O)N[C@H]1[C@H](O[C@H]2[C@@H](O)[C@@H](CO)O[C@@H](O[C@H]3[C@H](O)[C@@H](O)C(O)O[C@@H]3CO)[C@@H]2O)O[C@H](CO)[C@@H](O[C@@H]2O[C@@H](C)[C@@H](O)[C@@H](O)[C@@H]2O)[C@@H]1O[C@@H]1O[C@H](CO)[C@H](O)[C@H](O)[C@H]1O (stereo partly drawn) [Galβ1,3(Fucα1,4)GlcNAcβ1,3Galβ1,4Glc]	0%	0%		Relative rate (%) ST3N (ST3N; acceptor 2.0 mM): 0%
100%	100%	CC(=O)N[C@H]1C(O)O[C@H](CO)[C@H](O)[C@@H]1O[C@@H]1O[C@H](CO)[C@H](O)[C@H](O)[C@H]1O (stereo partly drawn) [Galβ1,3GalNAc]	100%		100%	Relative Activity (%) Porcine (porcine ST3O): 100%; Relative Activity (%) Human (human ST3O): 100%
		CC(=O)N[C@H]1C(O)O[C@H](CO)[C@@H](O)[C@@H]1O[C@@H]1O[C@H](CO)[C@H](O)[C@H](O)[C@H]1O (stereo partly drawn) [Galβ1,3GlcNAc]	2%		0%	
0%	1%	CC(=O)N[C@H]1[C@H](O[C@H]2[C@@H](O)[C@@H](CO)O[C@@H](O[C@H]3[C@H](O)[C@@H](O)C(O)O[C@@H]3CO)[C@@H]2O)O[C@H](CO)[C@@H](O[C@@H]2O[C@H](CO)[C@H](O)[C@H](O)[C@H]2O)[C@@H]1O[C@@H]1O[C@@H](C)[C@@H](O)[C@@H](O)[C@@H]1O (stereo partly drawn) [Galβ1,4(Fucα1,3)GlcNAcβ1,3Galβ1,4Glc]	0%	0%	0.1%	Relative rate (%) ST3N (ST3N; acceptor 2.0 mM): 0%
0.9%	23%	CC(=O)N[C@H]1C(O)O[C@H](CO)[C@@H](O[C@@H]2O[C@H](CO)[C@H](O)[C@H](O)[C@H]2O)[C@@H]1O (stereo partly drawn) [Galβ1,4GlcNAc]	0%		4%	Relative Activity (%) Porcine (porcine ST3O): 0%; Relative Activity (%) Human (human ST3O): 0%
		.varies.1 -acid glycoprotein: intact glycoprotein examined as acceptor				sialic acid incorporation by ST3 enzyme (ST3): not any significant amount of sialic acid incorporated
		Asialo-α1 -acid glycoprotein: glycoprotein acceptor (Galβ1,4GlcNAc-R)	0%		51%	use as acceptor by secreted enzyme (α2,3-N sialyltransferase): capable of sialylating
		Asialofetuin: glycoprotein acceptor (Galβ1,3GalNAc-Thr/Ser and Galβ1,4GlcNAc-R)	26%		92%	
		GalNAcβ1,4(NeuAcα2-3)Galβ1,4Glcβ1-Cer [GM2]	0.3%	0%		
		GalNAcβ1,4Galβ1,4Glcβ1-Cer [Asialo-GM2]	0.5%	0%	2%	
		Galβ1,3GalNAcβ1,4(NeuAcα2-3)Galβ1,4Glcβ1-Cer [GM1]	47%	0%	27%	Relative Activity (%) Porcine (porcine ST3O): 44%; Relative Activity (%) Human (human ST3O): 41%
		Galβ1,3GalNAcβ1,4Galβ1,4Glcβ,1-Cer [Asialo-GM1]	88%	8%	64%	Relative Activity (%) Porcine (porcine ST3O): 85%; Relative Activity (%) Human (human ST3O): 84%
		Galβ1,4Glcβ1-Cer [LacCer]	0.1%	0%	4%	
		NeuAcα2,3Galβ1,4Glcβ1-Cer [GM3]	0.1%	0%	0%	
		intact fetuin: glycoprotein examined as acceptor				sialic acid incorporation by ST3 enzyme (ST3): not any significant amount of sialic acid incorporated

Compound	Relative rate (%) ST3O (ST3O; acceptor 2.0 mM)	Relative rate (%) ST3 (ST3; acceptor 2.0 mM)	Relative rate (%) ST3O (ST3O; acceptor 0.2 mM)	Relative rate (%) ST3N (ST3N; acceptor 0.2 mM)	Relative rate (%) ST3 (ST3; acceptor 0.2 mM)	further results
CC(=O)N[C@H]1[C@H](O[C@H]2[C@@H](O)[C@@H](CO)O[C@@H](O[C@H]3[C@H](O)[C@@H](O)C(O)O[C@@H]3CO)[C@@H]2O)O[C@H](CO)[C@@H](O)[C@@H]1O[C@@H]1O[C@H](CO)[C@H](O)[C@H](O)[C@H]1O (stereo partly drawn) [LNT, lacto-N-tetrose]	3%	2.3%	0.5%	100%	0%	Relative activity (%) Rat (rat ST3N): 100%; Relative rate (%) ST3N (ST3N; acceptor 2.0 mM): 100%; Relative Activity (%) Human (human ST3N): 100%
CC(=O)N[C@H]1[C@H](O[C@H]2[C@@H](O)[C@@H](CO)O[C@@H](O[C@H]3[C@H](O)[C@@H](O)C(O)O[C@@H]3CO)[C@@H]2O)O[C@H](CO)[C@@H](O[C@@H]2O[C@H](CO)[C@H](O)[C@H](O)[C@H]2O)[C@@H]1O (stereo partly drawn) [LNnT, Galβ1,4GlcNAcβ1,3Galβ1,4Glc]	0.5%	49%	0%	4%	24%	Relative activity (%) Rat (rat ST3N): 4%; Relative rate (%) ST3N (ST3N; acceptor 2.0 mM): 18%; Relative Activity (%) Human (human ST3N): 5%
